# Measured values from ChEMBL document CHEMBL1795312, “Insights into the structural requirements of farnesyltransferase inhibitors as potential anti-tumor agents based on 3D-QSAR CoMFA and CoMSIA models” (Eur J Med Chem, 2008).
# Assay: Inhibition of farnesyltransferase
row,Compound,pIC50
1,Cc1ccccc1-c1cc(C(OCc2ccccc2C#N)c2cncn2C)ccc1C#N (configuration not stated),7.2
2,Cn1cncc1C(OCc1ccc(C#N)cc1)c1ccc(C#N)c(-c2ccccc2CO)c1 (configuration not stated),8.25
3,N#Cc1ccc(Cn2cncc2CNC2CCN(C(=O)c3ccc(Cl)cc3)C2=O)cc1 (configuration not stated),7.05
4,N#Cc1ccc(Cn2cncc2CN(c2ccccn2)C2CCN(Cc3ccccc3)C2=O)cc1 (configuration not stated),7.28
5,Cc1ccccc1-c1cc(C(OCc2ccc(OC(F)(F)F)cc2)c2cncn2C)ccc1C#N (configuration not stated),7.79
6,COc1cccc(-c2cc(C#N)ccc2COCc2cncn2Cc2ccc(C#N)nc2)c1,8.82
7,Cn1cncc1C(OCc1ccc(C#N)c(N2CCOCC2)n1)c1ccc(C#N)c(-c2ccccc2C(F)(F)F)c1 (configuration not stated),8.88
8,N#Cc1ccc(Cn2cncc2COCc2ccc(C#N)cc2-c2cccc(OC(F)(F)F)c2)cc1,9.3
9,N#Cc1ccc(Cn2cncc2COCc2ccc(C#N)cc2-c2cccc3c2OCO3)cc1,9.09
10,Cc1ccccc1-c1cc(C(OCc2cccc(OC(F)(F)F)c2)c2cncn2C)ccc1C#N (configuration not stated),8.08
11,Cc1ccccc1-c1cc(C(OCc2cnc(Cl)c(Cl)c2)c2cncn2C)ccc1C#N (configuration not stated),7.82
12,Cc1ccccc1-c1cc(C(OCc2ccc(F)cc2)c2cncn2C)ccc1C#N (configuration not stated),7.49
13,N#Cc1ccc(Cn2cncc2CNC2CCN(Cc3ccccc3Cl)C2=O)cc1 (configuration not stated),8.28
14,N#Cc1ccc(Cn2cncc2CN(CCCN)C2CCN(Cc3cccc(Cl)c3)C2=O)cc1 (configuration not stated),8.12
15,N#Cc1ccc(Cn2cncc2CNC2CCN(C(=O)c3cccc(Cl)c3)C2=O)cc1 (configuration not stated),7.57
16,CC(C)(C)c1ccc(-c2cc(C#N)ccc2COCc2cncn2Cc2ccc(C#N)cc2)cc1,9.35
17,N#Cc1ccc(Cn2cncc2COc2ccc(C#N)c(-c3cccc4ccccc34)c2)cc1,9.42
18,COC(=O)c1cccc(COC(c2ccc(C#N)c(-c3ccccc3C)c2)c2cncn2C)c1 (configuration not stated),7.21
19,N#Cc1ccc(Cn2cncc2CNC2CCN(C(=O)c3cccnc3N)C2=O)cc1 (configuration not stated),6.01
20,COc1cccc(-c2cc(C#N)ccc2COCc2cncn2Cc2ccc(C#N)cn2)c1,8.35
21,Cc1ccccc1-c1cc(C(OCc2cccc(Cl)c2)c2cncn2C)ccc1C#N (configuration not stated),7.72
22,Cn1cncc1C(OCc1ccc(C#N)c(N2CCC(CO)CC2)n1)c1ccc(C#N)c(-c2ccccc2C(F)(F)F)c1 (configuration not stated),8.74

row,Compound,pIC50
1,Cc1ccccc1-c1cc(C(OCc2cc(Cl)nc(Cl)c2)c2cncn2C)ccc1C#N (configuration not stated),7.88
2,Cn1cncc1C(OCc1ccc(C#N)c(NCCc2ccccc2)n1)c1ccc(C#N)c(-c2ccccc2C(F)(F)F)c1 (configuration not stated),8.04
3,Cc1ccccc1-c1cc(C(OCc2ccc(I)cc2)c2cncn2C)ccc1C#N (configuration not stated),7.88
4,CSc1ncccc1C(=O)N1CCC(NCc2cncn2Cc2ccc(C#N)cc2)C1=O (configuration not stated),7.08
5,N#Cc1ccc(Cn2cncc2COCc2ccc(C#N)cc2-c2ccc(Cl)c(Cl)c2)cc1,9.43
6,N#Cc1ccc(Cn2cncc2COCc2ccc(C#N)cc2-c2ccc3ccccc3c2)cc1,9.03
7,Cc1ccccc1-c1cc(C(OCc2ccc(C(F)(F)F)cc2)c2cncn2C)ccc1C#N (configuration not stated),7.92
8,N#Cc1ccc(COCc2cncn2Cc2ccc(C#N)nc2)c(-c2cccc(Cl)c2)c1,8.52
9,N#Cc1ccc(Cn2cncc2CNC2CCN(c3ccc(Cl)cc3)C2=O)cc1 (configuration not stated),7.68
10,Cn1cncc1C(OCc1ccc(C(F)(F)F)c(F)c1)c1ccc(C#N)c(-c2ccccc2C(F)(F)F)c1 (configuration not stated),8.21
11,N#Cc1ccc(Cn2cncc2CN[C@H]2CCN(CCc3ccccc3)C2=O)cc1,6.63
12,Cc1ccccc1-c1cc(C(OCc2ccc(C(C)C)cc2)c2cncn2C)ccc1C#N (configuration not stated),7.29
13,Cn1cncc1C(OCc1ccc(C#N)c(NCC2CCOC2)n1)c1ccc(C#N)c(-c2ccccc2C(F)(F)F)c1 (configuration not stated),8.11
14,N#Cc1ccc(Cn2cncc2CNC2CCN(c3ccncc3)C2=O)cc1 (configuration not stated),7.37
15,Cc1cccc(COC(c2ccc(C#N)c(-c3ccccc3C)c2)c2cncn2C)c1 (configuration not stated),7.21
16,N#Cc1ccc(OCc2cncn2Cc2ccc(C#N)c(-c3cccc4ccccc34)c2)nc1,9.04
17,N#Cc1ccc(Cn2cncc2CNC2CCN(C(=O)c3cccnc3S)C2=O)cc1 (configuration not stated),5.54
18,CCOc1ccc(-c2cc(C#N)ccc2COCc2cncn2Cc2ccc(C#N)cc2)cc1,8.92
19,CC(C)(C)OC(=O)NCCCN(Cc1cncn1Cc1ccc(C#N)cc1)C1CCN(Cc2cccc(Cl)c2)C1=O (configuration not stated),8.89
20,N#Cc1ccc(Cn2cncc2CN[C@H]2CCN(c3ccccc3)C2=O)cc1,7.13
21,Cc1ccccc1-c1cc(C(OCc2cccc(F)c2)c2cncn2C)ccc1C#N (configuration not stated),7.42
22,COC(=O)c1ccc(COC(c2ccc(C#N)c(-c3ccccc3C(F)(F)F)c2)c2cncn2C)nc1 (configuration not stated),8.04

row,Compound,pIC50
1,N#Cc1ccc(Cn2cncc2CNC2CCN(C(=O)c3cccc4ccccc34)C2=O)cc1 (configuration not stated),7.96
2,N#Cc1ccc(Cn2cncc2CNC2CCN(C(=O)c3cccnc3O)C2=O)cc1 (configuration not stated),5.17
3,Cc1ccccc1-c1cc(C(OCc2ccc(C(C)(C)C)cc2)c2cncn2C)ccc1C#N (configuration not stated),7.06
4,Cc1ccccc1-c1cc(C(OCc2ccc([N+](=O)[O-])cc2)c2cncn2C)ccc1C#N (configuration not stated),8.12
5,Cn1cncc1C(OCc1ccc(C#N)cc1)c1ccc(C#N)c(-c2ccccc2C(F)(F)F)c1 (configuration not stated),9.09
6,N#Cc1ccc(Cn2cncc2CNC2CCN(c3ccccc3Cl)C2=O)cc1 (configuration not stated),8.82
7,N#Cc1ccc(Cn2cncc2COCc2ccc(C#N)cc2-c2ccc3c(c2)OCO3)nc1,8.32
8,CN1CCN(c2nc(COC(c3ccc(C#N)c(-c4ccccc4C(F)(F)F)c3)c3cncn3C)ccc2C#N)CC1 (configuration not stated),8.92
9,Cc1ccccc1-c1cc(C(OCc2cccc3ccccc23)c2cncn2C)ccc1C#N (configuration not stated),7.76
10,N#Cc1ccc(Cn2cncc2CCN[C@@H]2CCN(c3ccccc3)C2=O)cc1,6.92
11,Cc1ccccc1-c1cc(C(OCc2ccccc2[N+](=O)[O-])c2cncn2C)ccc1C#N (configuration not stated),7.48
12,CCOc1cccc(-c2cc(C#N)ccc2COCc2cncn2Cc2ccc(C#N)nc2)c1,9.23
13,Cc1ccc(-c2cc(C#N)ccc2COCc2cncn2Cc2ccc(C#N)cc2)cc1C,9.22
14,Cc1ccccc1-c1cc(C(OCc2ccccc2Cl)c2cncn2C)ccc1C#N (configuration not stated),7.31
15,COc1ccc(-c2cc(C#N)ccc2COCc2cncn2Cc2ccc(C#N)cc2)cn1,8.11
16,N#Cc1ccc(Cn2cncc2CCN[C@H]2CCN(Cc3ccccc3)C2=O)cc1,6.56
17,Cc1ccccc1-c1cc(C(OCc2c(Cl)cccc2Cl)c2cncn2C)ccc1C#N (configuration not stated),7.09
18,N#Cc1ccc(Cn2cncc2CNC2CCN(c3cccnc3)C2=O)cc1 (configuration not stated),7.07
19,CCOc1cccc(-c2cc(C#N)ccc2COCc2cncn2Cc2ccc(Cl)cc2)c1,8.85
20,N#Cc1ccc(Cn2cncc2COCc2ccc(C#N)cc2-c2ccc(OC(F)(F)F)cc2)cc1,9.18
21,N#Cc1ccc(OCc2cncn2Cc2ccc(C#N)c(-c3cccc4ccccc34)c2)cc1,9.49
22,Cn1cncc1C(OCc1ccc(C#N)c(N2CCC[C@@H]2CO)n1)c1ccc(C#N)c(-c2ccccc2C(F)(F)F)c1 (some centres not stated),8.69

row,Compound,pIC50
1,Cc1ccccc1-c1cc(C(OCc2cccc(I)c2)c2cncn2C)ccc1C#N (configuration not stated),7.69
2,Cc1ccccc1COC(c1ccc(C#N)c(-c2ccccc2C)c1)c1cncn1C (configuration not stated),7.26
3,Cc1ccccc1-c1cc(C(OCc2ccccc2)c2cncn2C)ccc1C#N (configuration not stated),7.07
4,N#Cc1ccc(COCc2cncn2Cc2ccc(Cl)cc2)c(-c2ccc3c(c2)OCO3)c1,8.08
5,N#Cc1ccc(Cn2cncc2CCN[C@H]2CCN(CCc3ccccc3)C2=O)cc1,6.61
6,Cc1cccc(-c2cc(C(OCc3ccc(C#N)cc3)c3cncn3C)ccc2C#N)c1C (configuration not stated),8.67
7,COc1ccc(COC(c2ccc(C#N)c(-c3ccccc3C)c2)c2cncn2C)cc1 (configuration not stated),7.22
8,N#Cc1ccc(Cn2cncc2CCN[C@@H]2CCN(CCc3ccccc3)C2=O)cc1,6.42
9,Cc1ccccc1-c1cc(C(OCc2ccc(Cl)c(Cl)c2)c2cncn2C)ccc1C#N (configuration not stated),7.56
10,N#Cc1ccc(Cn2cncc2CNC2CCN(C(=O)c3ccccc3Cl)C2=O)cc1 (configuration not stated),7.19
11,N#Cc1ccc(Cn2cncc2CCN[C@H]2CCN(c3ccccc3)C2=O)cc1,6.55
12,Cc1ccccc1-c1cc(C(OCc2nc(-c3ccc(Cl)cc3)cs2)c2cncn2C)ccc1C#N (configuration not stated),7.53
13,N#Cc1ccc(Cn2cncc2CN(CCCCc2ccccc2)C2CCN(Cc3ccccc3)C2=O)cc1 (configuration not stated),7.38
14,N#Cc1ccc(Cn2cncc2COCc2ccc(C#N)cc2-c2ccc(C(F)(F)F)cc2)cc1,8.36
15,Cc1ccccc1-c1cc(C(OCc2ccccc2F)c2cncn2C)ccc1C#N (configuration not stated),7.15
16,CCSc1ncccc1C(=O)N1CCC(NCc2cncn2Cc2ccc(C#N)cc2)C1=O (configuration not stated),8.32
17,Cc1ccccc1-c1cc(C(OCc2cccc3cccnc23)c2cncn2C)ccc1C#N (configuration not stated),7.22
18,CCCN(Cc1cncn1Cc1ccc(C#N)cc1)C1CCN(Cc2ccccc2)C1=O (configuration not stated),7.23
19,N#Cc1ccc(Cn2cncc2CNC2CCN(C(=O)c3cccnc3)C2=O)cc1 (configuration not stated),5.7
20,Cn1cncc1C(OCc1ccc(C#N)c(NCc2cccc(F)c2)n1)c1ccc(C#N)c(-c2ccccc2C(F)(F)F)c1 (configuration not stated),8
21,N#Cc1ccc(Cn2cncc2CNC2CCN(c3cccc(Cl)c3)C2=O)cc1 (configuration not stated),8.08
